Experimental data published in patent US20100093715A1, “Plant productivity enhancement by combining chemical agents with transgenic modifications” (BASF SE, priority 2007, published 2010).

Tests used:
[1] = system: J553x(HIIIAxA188) null and transgenic corn; assay: Fipronil/Pyraclostrobin study, initial trial: seed treatment, greenhouse growth, LemnaTec Scanalyzer imaging and harvest; assay type: in vivo, maize (Zea Mays L.); settings: for Internode 1 length / Internode 2 length / Internode 3 length: seed treatment; for Fresh Weight: hand-collected
Experimental: (§1) J553x(HIIIAxA188) null and transgenic corn seeds of the T2 generation were treated with deionized water (Blank), 200 grams fipronil, 10 grams pyraclostrobin (F500), and 200 grams fipronil+10 grams pyraclostrobin; all formulation rates were grams/100 kg seed. Every formulation was applied to approximately 80 seeds. The formulation was pipetted into a 125 ml flask along the sides and bottom of the flask before adding the seeds and shaking the flask for 30 seconds. The coated seeds were then removed from the flask and placed in a plastic dish for drying.
(§2) Seventy-five 3-L pots per treatment (Blank, fipronil, pyraclostrobin, and fipronil+pyraclostrobin) were filled with potting media, labeled with colored stakes, and given a unique barcode. One seed per pot was planted at a depth of approximately 2 cm and covered with media. The media was lightly watered to imbibe the seeds, while allowing for ample oxygen exchange and so that the chemical coatings on the seeds remained intact. After planting, the pots were randomly distributed into three replicate blocks (1 bench=1 block), each with 25 plants of every treatment.
(§3) The plants were maintained in a greenhouse under optimal, well-watered conditions (80-90% field capacity) upon emergence. Supplemental nutrients were administered every third day during watering. The greenhouse temperature was maintained at 30° C., relative humidity at 75%, and light at 350 μmol m^−2s^−1, in a 15-hour day/9-hour night photoperiod. Supplemental lighting was provided using metal-halide lights. Once per week, the pots were randomly mixed within each block.
(§4) On day 21, the plants were imaged to collect the phenotypic data as described in the Imaging Procedures section. Leaves were sampled for transgene copy number on day 25 to identify the null and transgenic plants. On day 28, the plants were imaged and then harvested to collect fresh weight. The presence of the transgene was determined by the Taqman molecular analysis technique. Differences in the phenotypic data collected during the imaging process and in fresh weight among the four treatments and between the null and transgenic plants were assessed. The chemical by transgenic interactions were determined.
(§5) Imaging of the plants was facilitated using a LemnaTec Scanalyzer (Würselen, Germany), which includes a conveyor belt, an imaging station, a watering station, and computers for collecting, processing, and storing the image data. The cameras have a resolution of 1280×960 pixels and operate in 24-bit color.
(§6) The plants were manually transferred by block onto the conveyor system of the scanalyzer. Each plant was then moved through the imager automatically. At the imaging station, cameras collected the top view image and two side view images. The side view images were the transverse view and the view parallel with the plane of the plant.
(§7) As described in the formula (see Appendix A), the scanalyzer calculates plant volume as a number of pixels. To assign a physiologically meaningful value to the volume measurements, a separate experiment was conducted. The plants were scanned with the scanalyzer then harvested. The plant material was placed into a graduated cylinder filled to a known volume with water. The difference between the water plus plant material and water alone provided a known plant volume in mL.
(§8) Using the LemnaTec scanalyzer, we collected stem width; stalk volume; top, transverse, and parallel view plant areas; top, transverse, and parallel view green and yellow pixel counts; stem length; leaf angles and internode lengths through leaf 5; plant width and height; total leaf length; and total plant length.
(§9) Fresh Weight—A measurement of the fresh weight of the plant in grams. Hand-collected fresh weight is measured by harvesting the plant and weighing it on a balance. LemnaTec fresh weight is calculated by the scanalyzer based on plant volume and plant age. The zoom angles of the camera lenses are normalized using a calibration table. […]

[2] = system: J553x(HIIIAxA188) null and transgenic corn; assay: Fipronil/Pyraclostrobin study, second trial: seed treatment, greenhouse growth, LemnaTec Scanalyzer imaging; assay type: in vivo, maize (Zea Mays L.)
Experimental: as §1, §2, §3, §4, §5, §6, §7, §8, §9

[3] = Fipronil-Worldwide technical Bulletin, BASF; cited from earlier work
[4] = initial trial, relative to all other treatments

N#Cc1nn(-c2c(Cl)cc(C(F)(F)F)cc2Cl)c(N)c1[S+]([O-])C(F)(F)F (stereo not drawn) [Fipronil, 5-amino-1-(2,6-dichloro-α,α,α-trifluoro-p-tolyl)-4-trifluoromethylsulfinylpyrazole-3-carbonitrile]
# Fully Expanded Leaves ([1]; Avg): 3.0 | Leaf Angle 0 ([1]; Avg): 63.2 degrees | Leaf Angle 1 ([1]; Avg): 58.9 degrees | Plant Volume ([1]; Avg): 6.70E+06 pixels | Stem Length ([1]; Avg): 108.8 cm | stalk area from the transverse view, Pixel Count ([1]; Avg): 4910 pixels | Internode 1 length ([1]; Avg of null and transgenic): 35.9 cm | Internode 2 length ([1]; Avg of null and transgenic): 44.2 cm | Internode 3 length ([1]; Avg of null and transgenic): 40.0 cm | # Fully Expanded Leaves ([1]; Null plants): 3.1 | Leaf Angle 0 ([1]; Null plants): 57.5 degrees | Leaf Angle 1 ([1]; Null plants): 63.6 degrees | Plant Volume ([1]; Null plants): 6.53E+06 pixels | Stem Length ([1]; Null plants): 110.4 cm | stalk area from the transverse view, Pixel Count ([1]; Null plants): 5081 pixels | Internode 1 length ([1]; Null plants): 35.3 cm | Internode 2 length ([1]; Null plants): 45.9 cm | Internode 3 length ([1]; Null plants): 42.4 cm | Internode 1 length ([1]; Trans (transgenic) plants): 36.6 cm | Internode 2 length ([1]; Trans (transgenic) plants): 42.5 cm | Internode 3 length ([1]; Trans (transgenic) plants): 37.7 cm | # Fully Expanded Leaves ([1]; Trans plants): 3.0 | Leaf Angle 0 ([1]; Trans plants): 68.7 degrees | Leaf Angle 1 ([1]; Trans plants): 54.4 degrees | Plant Volume ([1]; Trans plants): 6.86E+06 pixels | Stem Length ([1]; Trans plants): 107.1 cm | stalk area from the transverse view, Pixel Count ([1]; Trans plants): 4744 pixels | Fresh Weight ([1]; Avg): 162.8 grams | Fresh Weight ([1]; Null plants): 160.9 grams | Fresh Weight ([1]; Trans plants): 164.7 grams | fresh mass (in words) ([1]; initial trial, in general): enhanced | plant height (in words) ([1]; initial trial, in general): enhanced | plant volume (in words) ([1]; initial trial, in general): enhanced | plant width (in words) ([1]; initial trial, in general): enhanced | greenness (in words) [1, 4]: enhanced | internode length (in words) [1, 4]: enhanced | leaf angle (in words) [1, 4]: enhanced | plant area (in words) [1, 4]: enhanced | Dark Green Count ([1]; parallel view, Avg): 16389.5 pixels | Medium Green Count ([1]; parallel view, Avg): 5662.4 pixels | Plant Area ([1]; parallel view, Avg): 23760.8 pixels | Yellow Count ([1]; parallel view, Avg): 1708.9 pixels | Dark Green Count ([1]; parallel view, Null plants): 15955.0 pixels | Medium Green Count ([1]; parallel view, Null plants): 5470.9 pixels | Plant Area ([1]; parallel view, Null plants): 23035.0 pixels | Yellow Count ([1]; parallel view, Null plants): 1609.1 pixels | Dark Green Count ([1]; parallel view, Trans plants): 16812.3 pixels | Medium Green Count ([1]; parallel view, Trans plants): 5848.7 pixels | Plant Area ([1]; parallel view, Trans plants): 24467.0 pixels | Yellow Count ([1]; parallel view, Trans plants): 1806.0 pixels | Medium Green Count ([1]; top view, Avg): 17465 pixels | Medium Green Count ([1]; top view, Null plants): 17038 pixels | Medium Green Count ([1]; top view, Trans plants): 17881 pixels | Medium Green Count ([1]; transverse view, Avg): 9089.0 pixels | Yellow Count ([1]; transverse view, Avg): 3363.6 pixels | Medium Green Count ([1]; transverse view, Null plants): 9132.8 pixels | Yellow Count ([1]; transverse view, Null plants): 3268.7 pixels | Medium Green Count ([1]; transverse view, Trans plants): 9046.4 pixels | Yellow Count ([1]; transverse view, Trans plants): 3455.9 pixels | Broad Side Drk Grn ([2]; Avg): 25067.65 pixels | Broad Side Plnt Area ([2]; Avg): 35413.12 pixels | Calc Fresh Weight ([2]; Avg): 100.77 g | Narrow Side Drk Grn ([2]; Avg): 25969.34 pix | Plant Volume ([2]; Avg): 9.19 M pixels | Top Drk Grn ([2]; Avg): 57132.20 pixels | Broad Side Drk Grn ([2]; Null plants): 26176.97 pixels | Broad Side Plnt Area ([2]; Null plants): 36398.18 pixels | Calc Fresh Weight ([2]; Null plants): 99.88 g | Narrow Side Drk Grn ([2]; Null plants): 24703.55 pix | Plant Volume ([2]; Null plants): 8.89 M pixels | Top Drk Grn ([2]; Null plants): 56608.71 pixels | Broad Side Drk Grn ([2]; Trans plants): 23958.33 pixels | Broad Side Plnt Area ([2]; Trans plants): 34428.06 pixels | Calc Fresh Weight ([2]; Trans plants): 101.65 g | Narrow Side Drk Grn ([2]; Trans plants): 27235.14 pix | Plant Volume ([2]; Trans plants): 9.50 M pixels | Top Drk Grn ([2]; Trans plants): 57655.69 pixels | reported plant performance effects [3]: enhance overall root system and root hair development, increase tiller number and productivity, increase photosynthetic capacity (plant greenness), increase leaf area and plant height, stimulate early flowering and grain maturation leading to significant increases in yield

COC(=O)N(OC)c1ccccc1COc1ccn(-c2ccc(Cl)cc2)n1 [F500, pyraclostrobin]
# Fully Expanded Leaves ([1]; Avg): 3.0 | Leaf Angle 0 ([1]; Avg): 46.6 degrees | Leaf Angle 1 ([1]; Avg): 37.4 degrees | Plant Volume ([1]; Avg): 6.43E+06 pixels | Stem Length ([1]; Avg): 104.4 cm | stalk area from the transverse view, Pixel Count ([1]; Avg): 4724 pixels | Internode 1 length ([1]; Avg of null and transgenic): 34.3 cm | Internode 2 length ([1]; Avg of null and transgenic): 38.4 cm | Internode 3 length ([1]; Avg of null and transgenic): 40.7 cm | # Fully Expanded Leaves ([1]; Null plants): 2.9 | Leaf Angle 0 ([1]; Null plants): 39.2 degrees | Leaf Angle 1 ([1]; Null plants): 36.5 degrees | Plant Volume ([1]; Null plants): 6.18E+06 pixels | Stem Length ([1]; Null plants): 97.2 cm | stalk area from the transverse view, Pixel Count ([1]; Null plants): 4725 pixels | Internode 1 length ([1]; Null plants): 32.5 cm | Internode 2 length ([1]; Null plants): 36.0 cm | Internode 3 length ([1]; Null plants): 38.8 cm | Internode 1 length ([1]; Trans (transgenic) plants): 35.9 cm | Internode 2 length ([1]; Trans (transgenic) plants): 40.4 cm | Internode 3 length ([1]; Trans (transgenic) plants): 42.1 cm | # Fully Expanded Leaves ([1]; Trans plants): 3.1 | Leaf Angle 0 ([1]; Trans plants): 52.5 degrees | Leaf Angle 1 ([1]; Trans plants): 38.2 degrees | Plant Volume ([1]; Trans plants): 6.63E+06 pixels | Stem Length ([1]; Trans plants): 110.2 cm | stalk area from the transverse view, Pixel Count ([1]; Trans plants): 4723 pixels | Fresh Weight ([1]; Avg): 155.3 grams | Fresh Weight ([1]; Null plants): 155.7 grams | Fresh Weight ([1]; Trans plants): 155.0 grams | Dark Green Count ([1]; parallel view, Avg): 14884.7 pixels | Medium Green Count ([1]; parallel view, Avg): 6153.1 pixels | Plant Area ([1]; parallel view, Avg): 23089.7 pixels | Yellow Count ([1]; parallel view, Avg): 2051.9 pixels | Dark Green Count ([1]; parallel view, Null plants): 14727.7 pixels | Medium Green Count ([1]; parallel view, Null plants): 5691.8 pixels | Plant Area ([1]; parallel view, Null plants): 22426.2 pixels | Yellow Count ([1]; parallel view, Null plants): 2006.6 pixels | Dark Green Count ([1]; parallel view, Trans plants): 15010.4 pixels | Medium Green Count ([1]; parallel view, Trans plants): 6522.1 pixels | Plant Area ([1]; parallel view, Trans plants): 23620.6 pixels | Yellow Count ([1]; parallel view, Trans plants): 2088.1 pixels | Medium Green Count ([1]; top view, Avg): 18542 pixels | Medium Green Count ([1]; top view, Null plants): 17893 pixels | Medium Green Count ([1]; top view, Trans plants): 19062 pixels | Medium Green Count ([1]; transverse view, Avg): 9584.5 pixels | Yellow Count ([1]; transverse view, Avg): 4227.2 pixels | Medium Green Count ([1]; transverse view, Null plants): 9303.7 pixels | Yellow Count ([1]; transverse view, Null plants): 4081.7 pixels | Medium Green Count ([1]; transverse view, Trans plants): 9809.2 pixels | Yellow Count ([1]; transverse view, Trans plants): 4343.5 pixels | Plant volume, significance of treatment [2]: significant at 99% | dark green pixel count, significance of treatment [2]: significant at 99% | Broad Side Drk Grn ([2]; Avg): 26984.96 pixels | Broad Side Plnt Area ([2]; Avg): 38169.74 pixels | Calc Fresh Weight ([2]; Avg): 105.47 g | Narrow Side Drk Grn ([2]; Avg): 27393.61 pix | Plant Volume ([2]; Avg): 10.47 M pixels | Top Drk Grn ([2]; Avg): 59991.92 pixels | Broad Side Drk Grn ([2]; Null plants): 26088.87 pixels | Broad Side Plnt Area ([2]; Null plants): 36740.30 pixels | Calc Fresh Weight ([2]; Null plants): 100.53 g | Narrow Side Drk Grn ([2]; Null plants): 26394.93 pix | Plant Volume ([2]; Null plants): 9.90 M pixels | Top Drk Grn ([2]; Null plants): 57676.78 pixels | Broad Side Drk Grn ([2]; Trans plants): 27881.04 pixels | Broad Side Plnt Area ([2]; Trans plants): 39599.17 pixels | Calc Fresh Weight ([2]; Trans plants): 110.41 g | Narrow Side Drk Grn ([2]; Trans plants): 28392.28 pix | Plant Volume ([2]; Trans plants): 11.04 M pixels | Top Drk Grn ([2]; Trans plants): 62307.07 pixels | photosynthetic health (in words) ([2]; in general): enhanced | plant size (in words) ([2]; in general): enhanced
